Laboratory results: US8546414B2, “Ion channel modulators and methods of use” (Vertex Pharmaceuticals Incorporated, priority 2004, dated 2013)
Like-named read-outs stand apart in the source and are kept apart here.

Columns and labels:
NaV1.3 [1] = biological target: T1, NaV1.3 (Homo sapiens, UniProt Q9NY46); conditions: read-out: TTX IC50; cited from earlier work
T1 construct: expressed in transfected cells; host or cells: HEK293

NaV1.6 = NaV1.6 (Homo sapiens, UniProt Q9UQD0); conditions: read-out: TTX IC50; cited from earlier work
NaV1.8 [2] = biological target: T2, NaV1.8 (Homo sapiens, UniProt Q9Y5Y9); conditions: read-out: TTX IC50; cited from earlier work
NaV1.9 = NaV1.9 (Homo sapiens, UniProt Q9UI33); conditions: read-out: TTX IC50; cited from earlier work
NaV1.1 = NaV1.1 (Homo sapiens, UniProt P35498); conditions: read-out: TTX IC50; cited from earlier work
NaV1.2 = NaV1.2 (Homo sapiens, UniProt Q99250); conditions: read-out: TTX IC50; cited from earlier work
[3] = neuropathic pain; cited from earlier work
CaV2.2 = biological target: T3, CaV2.2 (Homo sapiens, UniProt Q00975); assay: VIPR optical membrane potential assay with electrical stimulation, CaV2.2; type: cell-based; conditions: Table 9, CaV 2.2 receptors
T3 construct: expressed in transfected cells; host or cells: HEK293
T3 sequence (Q00975 whole entry): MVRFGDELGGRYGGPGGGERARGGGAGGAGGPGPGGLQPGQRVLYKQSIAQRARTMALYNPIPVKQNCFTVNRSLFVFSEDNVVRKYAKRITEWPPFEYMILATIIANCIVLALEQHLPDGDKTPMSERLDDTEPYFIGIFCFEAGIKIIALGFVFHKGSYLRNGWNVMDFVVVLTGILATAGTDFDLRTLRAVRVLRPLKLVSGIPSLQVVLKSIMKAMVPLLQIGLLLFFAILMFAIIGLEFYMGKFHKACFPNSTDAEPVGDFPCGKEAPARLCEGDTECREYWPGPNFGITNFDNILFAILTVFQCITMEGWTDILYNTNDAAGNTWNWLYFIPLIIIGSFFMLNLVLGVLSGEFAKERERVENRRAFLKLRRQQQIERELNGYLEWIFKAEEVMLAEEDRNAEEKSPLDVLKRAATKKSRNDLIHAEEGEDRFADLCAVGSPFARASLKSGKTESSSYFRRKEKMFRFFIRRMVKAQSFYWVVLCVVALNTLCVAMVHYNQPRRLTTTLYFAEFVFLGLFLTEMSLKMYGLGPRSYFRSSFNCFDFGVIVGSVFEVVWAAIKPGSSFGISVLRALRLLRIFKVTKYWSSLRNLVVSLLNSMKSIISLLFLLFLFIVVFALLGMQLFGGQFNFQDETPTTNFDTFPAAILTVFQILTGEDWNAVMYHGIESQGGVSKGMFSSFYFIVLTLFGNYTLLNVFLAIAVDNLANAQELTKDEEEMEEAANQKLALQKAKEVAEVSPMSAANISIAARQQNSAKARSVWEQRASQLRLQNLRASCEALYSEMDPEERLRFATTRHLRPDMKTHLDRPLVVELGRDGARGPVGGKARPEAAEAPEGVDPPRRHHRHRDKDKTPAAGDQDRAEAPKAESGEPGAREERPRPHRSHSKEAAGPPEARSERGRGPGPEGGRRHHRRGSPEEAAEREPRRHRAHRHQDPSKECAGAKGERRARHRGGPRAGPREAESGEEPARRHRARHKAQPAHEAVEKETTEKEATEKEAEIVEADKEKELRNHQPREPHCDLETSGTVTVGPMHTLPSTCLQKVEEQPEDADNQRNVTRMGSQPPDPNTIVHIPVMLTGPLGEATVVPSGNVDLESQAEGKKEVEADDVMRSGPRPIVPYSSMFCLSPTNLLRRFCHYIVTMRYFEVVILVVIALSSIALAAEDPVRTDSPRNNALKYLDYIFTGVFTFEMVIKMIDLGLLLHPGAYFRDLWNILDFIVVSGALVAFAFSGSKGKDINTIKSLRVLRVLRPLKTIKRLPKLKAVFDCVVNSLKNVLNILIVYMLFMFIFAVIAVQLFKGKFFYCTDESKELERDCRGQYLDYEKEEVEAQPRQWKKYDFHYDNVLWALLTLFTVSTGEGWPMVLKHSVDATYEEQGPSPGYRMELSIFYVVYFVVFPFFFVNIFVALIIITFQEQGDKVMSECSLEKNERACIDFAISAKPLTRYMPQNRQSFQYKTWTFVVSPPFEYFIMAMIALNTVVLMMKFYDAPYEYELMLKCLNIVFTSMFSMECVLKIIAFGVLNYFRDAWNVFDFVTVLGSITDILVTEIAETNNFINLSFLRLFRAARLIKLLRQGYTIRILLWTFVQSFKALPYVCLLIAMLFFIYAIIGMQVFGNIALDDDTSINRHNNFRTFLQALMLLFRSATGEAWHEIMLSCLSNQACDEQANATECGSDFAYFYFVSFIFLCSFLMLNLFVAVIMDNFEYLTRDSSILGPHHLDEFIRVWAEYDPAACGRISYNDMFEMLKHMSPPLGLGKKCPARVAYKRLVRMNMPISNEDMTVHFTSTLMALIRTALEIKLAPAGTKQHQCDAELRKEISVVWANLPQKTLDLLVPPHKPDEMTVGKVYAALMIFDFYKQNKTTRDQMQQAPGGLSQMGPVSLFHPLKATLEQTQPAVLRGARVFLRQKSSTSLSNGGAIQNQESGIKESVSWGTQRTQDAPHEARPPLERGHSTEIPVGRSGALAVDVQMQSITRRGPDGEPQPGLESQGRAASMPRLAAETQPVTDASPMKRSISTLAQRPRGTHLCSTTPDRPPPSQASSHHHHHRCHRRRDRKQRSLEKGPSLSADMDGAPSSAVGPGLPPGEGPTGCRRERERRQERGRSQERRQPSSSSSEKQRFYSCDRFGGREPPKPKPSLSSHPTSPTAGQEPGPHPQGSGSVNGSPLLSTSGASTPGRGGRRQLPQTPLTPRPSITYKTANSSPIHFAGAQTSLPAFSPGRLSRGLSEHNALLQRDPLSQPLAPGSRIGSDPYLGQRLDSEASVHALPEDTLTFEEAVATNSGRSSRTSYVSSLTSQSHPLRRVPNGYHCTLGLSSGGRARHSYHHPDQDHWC
T3 sequence (P54284 whole entry partner): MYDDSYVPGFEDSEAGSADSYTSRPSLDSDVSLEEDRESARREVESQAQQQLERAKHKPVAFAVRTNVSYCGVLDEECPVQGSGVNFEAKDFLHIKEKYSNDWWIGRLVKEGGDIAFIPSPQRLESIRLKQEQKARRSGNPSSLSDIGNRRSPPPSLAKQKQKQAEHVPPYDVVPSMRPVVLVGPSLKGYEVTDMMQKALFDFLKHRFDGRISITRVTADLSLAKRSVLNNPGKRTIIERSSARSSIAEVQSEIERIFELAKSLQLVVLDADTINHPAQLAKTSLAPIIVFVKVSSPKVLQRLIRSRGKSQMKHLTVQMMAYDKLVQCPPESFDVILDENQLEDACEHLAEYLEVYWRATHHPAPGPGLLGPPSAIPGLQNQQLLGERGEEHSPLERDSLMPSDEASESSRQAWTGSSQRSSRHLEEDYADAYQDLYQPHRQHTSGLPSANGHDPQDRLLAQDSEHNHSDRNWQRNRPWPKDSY
T3 sequence (P54289 25-956 partner limits assumed): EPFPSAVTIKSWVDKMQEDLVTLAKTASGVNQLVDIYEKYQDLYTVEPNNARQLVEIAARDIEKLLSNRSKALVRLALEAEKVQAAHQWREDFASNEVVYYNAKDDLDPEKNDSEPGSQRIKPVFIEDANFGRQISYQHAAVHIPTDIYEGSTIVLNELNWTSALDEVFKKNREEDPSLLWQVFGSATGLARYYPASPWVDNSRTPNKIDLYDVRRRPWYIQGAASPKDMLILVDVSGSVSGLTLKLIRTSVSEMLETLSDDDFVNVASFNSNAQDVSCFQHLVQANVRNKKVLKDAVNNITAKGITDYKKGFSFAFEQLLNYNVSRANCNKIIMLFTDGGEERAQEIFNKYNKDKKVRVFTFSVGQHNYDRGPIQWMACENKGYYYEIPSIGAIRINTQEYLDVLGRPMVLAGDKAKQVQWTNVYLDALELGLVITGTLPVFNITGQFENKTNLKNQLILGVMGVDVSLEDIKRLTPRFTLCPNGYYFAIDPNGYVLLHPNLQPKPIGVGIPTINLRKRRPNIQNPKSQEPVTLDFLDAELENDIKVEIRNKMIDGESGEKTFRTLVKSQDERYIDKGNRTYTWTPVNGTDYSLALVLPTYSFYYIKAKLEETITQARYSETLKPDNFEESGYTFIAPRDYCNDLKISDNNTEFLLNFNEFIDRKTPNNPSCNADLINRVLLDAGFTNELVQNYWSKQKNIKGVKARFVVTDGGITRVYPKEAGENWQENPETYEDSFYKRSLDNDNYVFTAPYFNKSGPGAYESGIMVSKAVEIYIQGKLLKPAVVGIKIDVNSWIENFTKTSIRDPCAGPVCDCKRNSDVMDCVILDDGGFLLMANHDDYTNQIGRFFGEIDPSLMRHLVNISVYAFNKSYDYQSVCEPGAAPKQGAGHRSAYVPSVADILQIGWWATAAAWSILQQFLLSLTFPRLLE
T3 sequence (P54289 957-1103 partner limits assumed): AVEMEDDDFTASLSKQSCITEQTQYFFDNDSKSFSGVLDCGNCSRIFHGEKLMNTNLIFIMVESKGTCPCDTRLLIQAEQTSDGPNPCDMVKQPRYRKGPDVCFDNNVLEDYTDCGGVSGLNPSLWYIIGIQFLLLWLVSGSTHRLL
How it was run: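 HEK293 cells stably expressing CaV2.2 stained with CC2-DMPE/DiSBAC2(3) voltage-sensitive dyes (10 μM final CC2-DMPE, 30 min, RT), then compound added and cells electrically stimulated for 3-5 s. Read-out: background-subtracted 460/580 nm emission ratio; response R=Rf/Ri (post- vs pre-stimulus ratio); antagonism seen as reduced response.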

NaV1.3 [4] = biological target: T1, NaV1.3; assay: VIPR optical membrane potential assay with electrical stimulation, NaV1.3; type: cell-based; conditions: Table 9, NaV 1.3 receptors
How it was run: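 HEK293 cells stably expressing NaV1.3, stained with CC2-DMPE (10 μM final) then DiSBAC2(3) with ABSC1, 30 min each at RT; compounds added with oxonol. Electrical stimulation for 3 s; 460/580 nm background-subtracted emission ratio Rf/Ri, normalised to tetracaine (positive) and untreated (negative) controls.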

NaV1.8 [5] = biological target: T2, NaV1.8; assay: VIPR optical membrane potential assay, NaV1.8 (other subtypes in an analogous mode); type: cell-based; conditions: Table 9, NaV 1.8 receptors
How it was run: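 Cells expressing the NaV subtype stained with coumarin and DiSBAC2(3) membrane-potential dyes, then incubated with test compound for 20-30 minutes. Depolarization evoked by sodium addback and read optically on VIPR; block measured as reduced membrane-potential response, with tetracaine as positive control.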

SMILES	IC50 (CaV2.2)	IC50 (NaV1.3 [4])	IC50 (NaV1.8 [5])	also measured
NC1=N[C@H](O)[C@H]2[C@H]3O[C@]4(O)O[C@@H]([C@@H](O)[C@@]2(N1)[C@@H]4O)[C@]3(O)CO [TTX, tetrodotoxin]				IC50 (NaV1.3 [1]): 0.015 µM; IC50 (NaV1.6): 0.006 µM; IC50 (NaV1.8 [2]): > 50 µM; IC50 (NaV1.9): 1 µM; IC50 (NaV1.1): 0.01 µM; IC50 (NaV1.2): 0.01 µM
NCC1(CC(=O)O)CCCCC1 [Gabapentin]				patients in whom it works [3]: 60%
CN1CCN(c2ncc(C(=O)N(Cc3ccccc3)C3CC3)c(-c3ccccc3F)n2)CC1 [compound 129]	> 10 µM	> 10 µM	> 10 µM	
COc1cccc(N(C(=O)c2cnc(N3CCCCC3)nc2-c2ccccc2F)C2CCOCC2)c1 [compound 35]	> 10 µM	> 10 µM	> 10 µM	
O=C(c1cnc(N2CCOCC2)nc1-c1ccccc1F)N(Cc1ccc2c(c1)CCO2)C1CC1 [compound 53]	2 to 10 µM	2 to 10 µM	> 10 µM	
CC(C)N(C(=O)c1cnc(N2CCOCC2)nc1-c1ccccc1F)c1cccc(C#N)c1 [compound 202]	> 10 µM	> 10 µM	> 10 µM	
O=C(c1cnc(N2CCOCC2)nc1-c1ccccc1F)N(Cc1cccc2ccccc12)C1CC1 [compound 40]	> 10 µM	2 to 10 µM	> 10 µM	
CC(C)N(Cc1ccc(C(C)(C)C)cc1)C(=O)c1cnc(N2CCSCC2)nc1-c1ccccc1F [compound 59]	< 2 µM	2 to 10 µM	2 to 10 µM	
COc1cccc(N(C(=O)c2cnc(N3CCCCC3)nc2-c2ccccc2Cl)C2CCCC2)c1 [compound 8]	2 to 10 µM	2 to 10 µM	> 10 µM	
CC(C)N(Cc1ccccc1)C(=O)c1cnc(Nc2cccc(C(N)=O)c2)nc1-c1ccccc1F [compound 73]	> 10 µM	> 10 µM	> 10 µM	
CC(C)N(Cc1ccc(C(C)(C)C)cc1)C(=O)c1cnc(N2CCOCC2)nc1-c1ccccc1F [compound 24]	< 2 µM	2 to 10 µM	2 to 10 µM	
CC(C)N(Cc1ccccc1)C(=O)c1cnc(N2CCN(C)CC2)nc1-c1ccccc1F [compound 167]	> 10 µM	> 10 µM	> 10 µM	
CC(C)N(C(=O)c1cnc(N2CCOCC2)nc1-c1ccccc1F)c1ccccc1 [compound 88]	2 to 10 µM	> 10 µM	> 10 µM	
CC(C)N(Cc1ccccc1)C(=O)c1cnc(N2CCCCC2)nc1-c1ccccc1F [compound 117]	< 2 µM	2 to 10 µM	2 to 10 µM	
CC(C)N(C(=O)c1cnc(N2CCCCC2)nc1-c1ccccc1Cl)c1cccc(C#N)c1 [compound 101]	2 to 10 µM	2 to 10 µM	> 10 µM	
COc1ccc(N(C(=O)c2cnc(N3CCCCC3)nc2-c2ccccc2Cl)C(C)C)cc1 [compound 43]	2 to 10 µM	2 to 10 µM	> 10 µM	
CC(C)N(C(=O)c1cnc(N2CCN(C)CC2)nc1-c1ccccc1F)c1ccccc1 [compound 23]	> 10 µM	> 10 µM	> 10 µM	
O=C(c1cnc(N2CCOCC2)nc1-c1ccccc1F)N1CCc2ccccc2C1 [compound 107]	> 10 µM	> 10 µM	> 10 µM	
O=C(c1cnc(N2CCSCC2)nc1-c1ccccc1F)N(Cc1ccccc1)C1CC1 [compound 109]	2 to 10 µM	2 to 10 µM	> 10 µM	
CC(C)N(Cc1ccccc1)C(=O)c1cnc(Nc2cccc(O)c2)nc1-c1ccccc1F [compound 132]	> 10 µM	> 10 µM	> 10 µM	
O=C(c1cnc(N2CCOCC2)nc1-c1ccccc1F)N(Cc1cccc(F)c1)C1CC1 [compound 110]	2 to 10 µM	> 10 µM	> 10 µM	
O=C(c1cnc(N2CCOCC2)nc1-c1ccccc1F)N(Cc1ccccc1)C1CCCCC1 [compound 64]	2 to 10 µM	2 to 10 µM	> 10 µM	
CC(C)N(C(=O)c1cnc(N2CCCCC2)nc1-c1ccccc1F)C1CCSC1 (stereo not shown) [compound 149]	> 10 µM	> 10 µM	> 10 µM	
O=C(c1cnc(N2CCSCC2)nc1-c1ccccc1F)N(Cc1ccc(C(F)(F)F)cc1)C1CC1 [compound 85]	> 10 µM	2 to 10 µM	2 to 10 µM	
O=C(c1cnc(N2CCOCC2)nc1-c1ccccc1F)N1CCCC(c2ccc(F)cc2)C1 (stereo not shown) [compound 191]	> 10 µM	> 10 µM	> 10 µM	
O=C(c1cnc(N2CCOCC2)nc1-c1ccccc1F)N1CC=C(c2ccc(F)cc2)CC1 [compound 71]	> 10 µM	> 10 µM	> 10 µM	
COc1cccc(CN(C(=O)c2cnc(N3CCc4ccccc4C3)nc2-c2ccccc2F)C(C)C)c1 [compound 22]	< 2 µM	2 to 10 µM	> 10 µM	
